Data reported in ChEMBL document CHEMBL4665846, “Piperlonguminine and Piperine Analogues as TrxR Inhibitors that Promote ROS and Autophagy and Regulate p38 and Akt/mTOR Signaling” (J Nat Prod, 2020).
Calls of active or inactive are those of the source. The rule behind the calls is not given here.

Legend:
Bel-7402 = assay: Cytotoxicity against human Bel-7402 cells assessed as reduction in cell viability after 72 hrs by MTT assay; assay type: functional, cell-based; settings: for IC50: Bel-7402, 72 h
HepG2 = assay: Cytotoxicity against human HepG2 cells assessed as reduction in cell viability after 72 hrs by MTT assay; assay type: functional, cell-based; settings: HepG2, 72 h
HGC-27 [1] = assay: Cytotoxicity against human HGC-27 cells assessed as reduction in cell viability after 72 hrs by MTT assay; assay type: functional, cell-based; settings: HGC-27, 72 h
HCT-116 = assay: Cytotoxicity against human HCT-116 cells assessed as reduction in cell viability after 72 hrs by MTT assay; assay type: functional, cell-based; settings: HCT-116, 72 h
Bel7402/5-FU [2] = assay: Cytotoxicity against human BEL-7402/5-FU cells assessed as reduction in cell viability after 72 hrs by MTT assay; assay type: functional, cell-based
Bel7402/5-FU [3] = assay: Induction of mitochondrial membrane potential loss in human BEL-7402/5-FU cells at 10 uM after 24 hrs by JC-1 staining based fluorescence microscopic method; assay type: functional, cell-based
[4] = biological target: T1, Thioredoxin reductase 1, cytoplasmic (Homo sapiens, UniProt Q16881); assay: Inhibition of TrxR in human BEL-7402/5-FU cells by colorimetric assay; assay type: cell-based
T1 sequence (Q16881 whole entry): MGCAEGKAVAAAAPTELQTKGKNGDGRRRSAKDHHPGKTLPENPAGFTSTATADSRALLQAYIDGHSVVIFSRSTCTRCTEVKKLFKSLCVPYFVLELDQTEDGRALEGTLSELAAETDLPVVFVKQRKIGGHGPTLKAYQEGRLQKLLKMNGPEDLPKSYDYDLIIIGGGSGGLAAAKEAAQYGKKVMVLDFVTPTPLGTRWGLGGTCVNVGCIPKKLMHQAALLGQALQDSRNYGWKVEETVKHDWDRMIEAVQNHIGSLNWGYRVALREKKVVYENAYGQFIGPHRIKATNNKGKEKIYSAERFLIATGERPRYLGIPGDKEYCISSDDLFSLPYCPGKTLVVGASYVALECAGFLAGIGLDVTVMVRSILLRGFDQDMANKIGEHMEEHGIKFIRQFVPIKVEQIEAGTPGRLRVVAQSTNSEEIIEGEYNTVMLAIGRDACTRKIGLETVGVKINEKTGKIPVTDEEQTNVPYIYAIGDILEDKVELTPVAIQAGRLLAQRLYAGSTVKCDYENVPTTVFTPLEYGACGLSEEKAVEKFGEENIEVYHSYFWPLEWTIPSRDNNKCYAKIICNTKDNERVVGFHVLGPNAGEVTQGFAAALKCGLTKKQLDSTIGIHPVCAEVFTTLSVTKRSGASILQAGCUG

Bel7402/5-FU [5] = assay: Induction of mitochondrial membrane potential loss in human BEL-7402/5-FU cells at 1 uM after 24 hrs by JC-1 staining based fluorescence microscopic method relative to piperlongumine; assay type: functional
Bel7402/5-FU [6] = assay: Induction of autophagy in human BEL-7402/5-FU cells assessed as down regulation of LC3-1 protein expression after 72 hrs by Western blot analysis; assay type: functional, cell-based; settings: dose microM 0.32-2, time 72.0 hrs
[7] = biological target: T2, Thioredoxin reductase 1, cytoplasmic (Homo sapiens) (UniProt Q16881); assay: Potency index, ratio of piperlongumine IC50 to test compound IC50 for inhibition of TrXr in human BEL-7402/5-FU cells; assay type: cell-based
T2 sequence (whole entry): T1 sequence (Q16881 whole entry)

Bel7402/5-FU [8] = assay: Induction of autophagy in human BEL-7402/5-FU cells assessed as up regulation of LC3-2 protein expression after 72 hrs by Western blot analysis; assay type: functional, cell-based; settings: dose microM 0.32-2, time 72.0 hrs
[9] = Selectivity ratio of IC50 for cytotoxicity against human L02 cells to IC50 for cytotoxicity against human BEL-7402/5-FU cells
[10] = biological target: T3, MAP kinase p38 (Homo sapiens) (UniProt O15264+Q15759+Q16539+P53778); assay: Activation of p38 phosphorylation in human BEL-7402/5-FU cells incubated for 72 hrs by Western blot analysis; assay type: cell-based; settings: filed as activator, dose microM 0.32-2, time 72.0 hrs
[11] = Selectivity ratio of IC50 for cytotoxicity against human L02 cells to IC50 for cytotoxicity against human Bel-7402 cells; assay type: toxicity, cell-based; settings: L02 cells and Bel-7402 cells, read-out: Ratio IC50
[12] = biological target: Serine/threonine-protein kinase mTOR (Homo sapiens) (UniProt P42345); assay: Inhibition of mTOR phosphorylation in human BEL-7402/5-FU cells incubated for 72 hrs by Western blot analysis; assay type: cell-based; settings: dose microM 0.32-2, time 72.0 hrs
Bel7402/5-FU [13] = assay: Potency index, ratio of piperlongumine IC50 to test compound IC50 for cytotoxicity against human BEL-7402/5-FU cells; assay type: functional
Bel7402/5-FU [14] = assay: Induction of autophagy in human BEL-7402/5-FU cells expressing mRFP-eGFP-LC3 assessed as auto lysosomes at 0.8 to 2 uM after 24 hrs by confocal laser scanning microscopic method; assay type: functional, cell-based; settings: dose microM 0.8-2, time 24.0 hrs
Bel7402/5-FU [15] = assay: Induction of autophagy in human BEL-7402/5-FU cells assessed as down regulation of P62 protein expression after 72 hrs by Western blot analysis; assay type: functional, cell-based; settings: dose microM 0.32-2, time 72.0 hrs
Bel7402/5-FU [16] = assay: Induction of autophagy in human BEL-7402/5-FU cells expressing mRFP-eGFP-LC3 assessed as autophagosomes at 0.8 to 2 uM after 24 hrs by confocal laser scanning microscopic method; assay type: functional, cell-based; settings: dose microM 0.8-2, time 24.0 hrs
HGC-27 [17] = assay: Potency index, ratio of piperlongumine IC50 to test compound IC50 for cytotoxicity against human HGC-27 cells; assay type: functional
Bel7402/5-FU [18] = assay: Induction of ROS generation in human BEL-7402/5-FU cells at 10 uM using H2O2 as substrate preincubated for 24 hrs followed by substrate addition and measured after 6 hrs by ROS-Glo assay relative to control; assay type: functional
[19] = biological target: T4, Serine/threonine-protein kinase AKT (Homo sapiens) (UniProt P31751+Q9Y243+P31749); assay: Inhibition of AKT phosphorylation in human BEL-7402/5-FU cells incubated for 72 hrs by Western blot analysis; assay type: cell-based; settings: dose microM 0.32-2, time 72.0 hrs
Bel7402/5-FU [20] = assay: Induction of autophagy in human BEL-7402/5-FU cells assessed as up regulation of beclin-1 protein expression after 72 hrs by Western blot analysis; assay type: functional, cell-based; settings: dose microM 0.32-2, time 72.0 hrs
[21] = biological target: Serine/threonine-protein kinase mTOR (Homo sapiens) (UniProt P42345); assay: Inhibition of mTOR phosphorylation in human BEL-7402/5-FU cells at 2 uM incubated for 72 hrs by Western blot analysis; assay type: cell-based
[22] = biological target: T4, Serine/threonine-protein kinase AKT (Homo sapiens); assay: Inhibition of AKT phosphorylation in human BEL-7402/5-FU cells at 2 uM incubated for 72 hrs by Western blot analysis; assay type: cell-based
Bel7402/5-FU [23] = assay: Induction of autophagy in human BEL-7402/5-FU cells expressing mRFP-eGFP-LC3 assessed as auto lysosomes at 2 uM after 24 hrs by confocal laser scanning microscopic method; assay type: functional, cell-based
[24] = biological target: T3, MAP kinase p38 (Homo sapiens); assay: Activation of p38 phosphorylation in human BEL-7402/5-FU cells at 2 uM incubated for 72 hrs by Western blot analysis; assay type: cell-based; settings: filed as activator
Bel7402/5-FU [25] = assay: Induction of autophagy in human BEL-7402/5-FU cells expressing mRFP-eGFP-LC3 assessed as autophagosomes at 2 uM after 24 hrs by confocal laser scanning microscopic method; assay type: functional, cell-based

T4 sequence (P31749 whole entry, looked up): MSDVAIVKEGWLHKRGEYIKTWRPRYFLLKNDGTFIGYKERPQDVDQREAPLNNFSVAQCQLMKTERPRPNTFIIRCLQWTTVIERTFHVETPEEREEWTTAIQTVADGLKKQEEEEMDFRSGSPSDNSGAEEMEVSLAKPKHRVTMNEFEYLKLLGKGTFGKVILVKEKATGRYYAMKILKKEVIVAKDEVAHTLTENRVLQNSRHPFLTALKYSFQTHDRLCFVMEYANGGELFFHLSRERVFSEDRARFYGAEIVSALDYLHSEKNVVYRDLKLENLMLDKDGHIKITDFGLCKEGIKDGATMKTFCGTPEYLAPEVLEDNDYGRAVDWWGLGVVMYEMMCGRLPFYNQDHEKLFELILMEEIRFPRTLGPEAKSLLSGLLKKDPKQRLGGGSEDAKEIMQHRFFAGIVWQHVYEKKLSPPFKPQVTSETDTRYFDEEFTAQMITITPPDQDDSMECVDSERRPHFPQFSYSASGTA
T4 sequence (P31751 whole entry, looked up): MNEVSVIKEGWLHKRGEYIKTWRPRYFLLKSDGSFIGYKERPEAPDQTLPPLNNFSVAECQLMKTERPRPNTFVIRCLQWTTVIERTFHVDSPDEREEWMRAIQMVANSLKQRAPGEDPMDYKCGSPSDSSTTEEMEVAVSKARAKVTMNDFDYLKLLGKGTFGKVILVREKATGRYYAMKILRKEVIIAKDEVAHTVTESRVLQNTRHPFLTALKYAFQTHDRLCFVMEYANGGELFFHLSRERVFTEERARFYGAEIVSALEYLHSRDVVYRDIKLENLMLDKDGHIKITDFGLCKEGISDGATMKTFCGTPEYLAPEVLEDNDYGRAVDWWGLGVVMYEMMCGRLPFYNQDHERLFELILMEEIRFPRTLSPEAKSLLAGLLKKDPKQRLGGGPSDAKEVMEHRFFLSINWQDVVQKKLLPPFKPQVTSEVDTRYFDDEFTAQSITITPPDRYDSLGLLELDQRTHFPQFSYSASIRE
T4 sequence (Q9Y243 whole entry, looked up): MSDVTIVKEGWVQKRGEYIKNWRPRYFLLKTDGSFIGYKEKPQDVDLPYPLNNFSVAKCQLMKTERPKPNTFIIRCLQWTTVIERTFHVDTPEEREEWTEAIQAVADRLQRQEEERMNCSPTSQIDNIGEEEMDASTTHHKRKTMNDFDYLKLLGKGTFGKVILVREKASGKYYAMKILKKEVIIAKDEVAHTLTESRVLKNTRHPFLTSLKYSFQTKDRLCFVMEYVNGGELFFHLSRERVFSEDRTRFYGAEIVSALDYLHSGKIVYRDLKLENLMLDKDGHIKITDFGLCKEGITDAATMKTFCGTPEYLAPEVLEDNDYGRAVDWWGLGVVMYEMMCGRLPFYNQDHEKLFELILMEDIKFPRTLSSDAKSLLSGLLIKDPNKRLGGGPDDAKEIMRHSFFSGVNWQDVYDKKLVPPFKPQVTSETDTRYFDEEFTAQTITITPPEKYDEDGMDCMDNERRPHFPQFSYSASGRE

SMILES	IC50 (Bel-7402)	IC50 (HepG2)	IC50 (HGC-27 [1])	IC50 (HCT-116)	IC50 (Bel7402/5-FU [2])	also measured
O=C1C=CCC/C1=C\C=C\c1ccc([N+](=O)[O-])cc1	4.2 µM	4.9 µM	5.2 µM	5 µM	4.5 µM	–
O=C1C=CCC/C1=C\C=C\c1ccc(Br)cc1	3.6 µM	6.1 µM	4.5 µM	5.2 µM	4.3 µM	–
COc1ccc(/C=C/C=C2\CCC=CC2=O)cc1	1.4 µM	2.4 µM	3.2 µM	2.1 µM	1.7 µM	Activity (Bel7402/5-FU [3]): Active; IC50 [4]: 0.4 µM
O=C1C=CCC/C1=C\C(Br)=C\c1ccccc1	> 10 µM	> 10 µM	> 10 µM	> 10 µM	> 10 µM	–
O=C1C=CCC/C1=C\C=C\c1ccccc1[N+](=O)[O-]	4.6 µM	6.8 µM	4.4 µM	6.2 µM	5.2 µM	–
O=C1C=CCC/C1=C\C=C\c1ccc(F)cc1	1.8 µM	2.9 µM	2.3 µM	2.2 µM	1.9 µM	Activity (Bel7402/5-FU [3]): Active; IC50 [4]: 0.6 µM
O=C(/C=C/C=C/c1ccc2c(c1)OCO2)N1CCCCC1 [PIPERINE]	> 10 µM	> 10 µM	–	–	–	–
O=C1C=CCC/C1=C\C=C\c1ccc(Cl)cc1	3.2 µM	3.7 µM	4.8 µM	3.5 µM	3.2 µM	–
O=C1C=CCC/C1=C\C=C\c1ccccc1	4.2 µM	7.1 µM	4.5 µM	5.4 µM	4.2 µM	–
COc1cc(/C=C/C=C2\CCC=CC2=O)ccc1O	0.8 µM	0.9 µM	1.2 µM	0.9 µM	0.8 µM	Activity (Bel-7402): Dose-dependent effect; fold change (FC) (Bel7402/5-FU [5]): 10; Activity (Bel7402/5-FU [6]): Dose-dependent effect; Ratio IC50 [7]: 9; Activity (Bel7402/5-FU [3]): Active; Activity (Bel7402/5-FU [8]): Dose-dependent effect; IC50 [4]: 0.2 µM; Ratio IC50 [9]: 6; Activity [10]: Dose-dependent effect; selectivity ratio [11]: 6; inhibition [12]: Dose-dependent effect; Ratio IC50 (Bel7402/5-FU [13]): 10; Activity (Bel7402/5-FU [14]): Active; Activity (Bel7402/5-FU [15]): Dose-dependent effect; Activity (Bel7402/5-FU [16]): Active; Ratio IC50 (HGC-27 [17]): 7; Activity (Bel7402/5-FU [18]): 50%; inhibition [19]: Dose-dependent effect; Activity (Bel7402/5-FU [2]): Dose-dependent effect; Activity (Bel7402/5-FU [20]): Dose-dependent effect
CN(C)c1ccc(/C=C/C=C2\CCC=CC2=O)cc1	0.9 µM	1.1 µM	1.5 µM	1.2 µM	1 µM	Ratio IC50 [7]: 9; Activity (Bel7402/5-FU [3]): Active; IC50 [4]: 0.2 µM
COc1ccccc1/C=C/C=C1\CCC=CC1=O	2.6 µM	5.8 µM	3.1 µM	2.8 µM	2.5 µM	–
COc1cc(/C=C/C(=O)N2CCC=CC2=O)cc(OC)c1OC [PIPLARTINE]	–	–	8.1 µM	6.9 µM	–	inhibition [21]: Active; inhibition [22]: Active; Activity (Bel7402/5-FU [23]): Active; Activity [24]: Active; Activity (Bel7402/5-FU [25]): Active
Cc1ccc(/C=C/C=C2\CCC=CC2=O)cc1	6.3 µM	8.6 µM	8.1 µM	7.2 µM	5.8 µM	–
CC(=O)Oc1ccc(/C=C/C=C2\CCC=CC2=O)cc1	3.8 µM	4.5 µM	4.9 µM	4.6 µM	4.1 µM	–
CC(=C\c1ccccc1)/C=C1\CCC=CC1=O	3.9 µM	4.6 µM	5.2 µM	4.8 µM	4.2 µM	–
